Measured values taken from the NIST ThermoML archive (doi:10.1021/je3009304).
Numbers after ± are expanded uncertainties.

Details: Liquid

C=C(F)C(F)(F)F [2,3,3,3-tetrafluoro-1-propene]
Details | mass density [kg/m3]
217.44 K, 14681 kPa, isochoric method | 1363.7 ± 1.3
218.27 K, 962.6 kPa, isochoric method | 1333.8 ± 1.3
219.23 K, 2020.3 kPa, isochoric method | 1333.7 ± 1.3
220.22 K, 3106.5 kPa, isochoric method | 1333.6 ± 1.3
221.18 K, 4140.3 kPa, isochoric method | 1333.5 ± 1.3
221.97 K, 20077 kPa, isochoric method | 1363.2 ± 1.3
222.06 K, 5097 kPa, isochoric method | 1333.4 ± 1.3
226.65 K, 10087 kPa, isochoric method | 1332.9 ± 1.3
226.93 K, 25988 kPa, isochoric method | 1362.7 ± 1.3
230.27 K, 29902 kPa, isochoric method | 1362.4 ± 1.3
231.25 K, 15017 kPa, isochoric method | 1332.4 ± 1.3
231.72 K, 1001.1 kPa, isochoric method | 1298.5 ± 1.3
232.84 K, 2093.9 kPa, isochoric method | 1298.4 ± 1.3
233.76 K, 2987 kPa, isochoric method | 1298.2 ± 1.3
234.77 K, 35121 kPa, isochoric method | 1361.9 ± 1.3
234.92 K, 4113.3 kPa, isochoric method | 1298.2 ± 1.3
236.02 K, 20027 kPa, isochoric method | 1332 ± 1.3
236.13 K, 5205.1 kPa, isochoric method | 1298 ± 1.3
240.49 K, 24777 kPa, isochoric method | 1331.5 ± 1.3
241.06 K, 10038 kPa, isochoric method | 1297.5 ± 1.3
245.59 K, 30165 kPa, isochoric method | 1331 ± 1.3
246.22 K, 14993 kPa, isochoric method | 1297.1 ± 1.3
250.28 K, 35113 kPa, isochoric method | 1330.6 ± 1.3
251.43 K, 19983 kPa, isochoric method | 1296.6 ± 1.3
251.62 K, 971.2 kPa, isochoric method | 1243.5 ± 1.2
252.83 K, 1949.3 kPa, isochoric method | 1243.4 ± 1.2
254.25 K, 3101.8 kPa, isochoric method | 1243.3 ± 1.2
254.96 K, 39964 kPa, isochoric method | 1330.1 ± 1.3
255.48 K, 4096.7 kPa, isochoric method | 1243.2 ± 1.2
256.7 K, 5077.8 kPa, isochoric method | 1243.1 ± 1.2
256.72 K, 25008 kPa, isochoric method | 1296.1 ± 1.3
261.89 K, 29860 kPa, isochoric method | 1295.6 ± 1.3
262.98 K, 10262 kPa, isochoric method | 1242.5 ± 1.2
267.49 K, 35084 kPa, isochoric method | 1295.1 ± 1.3
269.01 K, 15092 kPa, isochoric method | 1242 ± 1.2
269.39 K, 1033.4 kPa, isochoric method | 1191.1 ± 1.2
270.88 K, 2044.5 kPa, isochoric method | 1190.9 ± 1.2
272.34 K, 3041.1 kPa, isochoric method | 1190.8 ± 1.2
272.52 K, 39731 kPa, isochoric method | 1294.7 ± 1.3
273.79 K, 4025.5 kPa, isochoric method | 1190.7 ± 1.2
275.28 K, 5036.3 kPa, isochoric method | 1190.6 ± 1.2
275.31 K, 20033 kPa, isochoric method | 1241.4 ± 1.2
282.03 K, 25427 kPa, isochoric method | 1240.8 ± 1.2
282.83 K, 10183 kPa, isochoric method | 1189.9 ± 1.2
282.95 K, 1036 kPa, isochoric method | 1147.5 ± 1.2
284.62 K, 2015.3 kPa, isochoric method | 1147.4 ± 1.2
286.31 K, 3030.5 kPa, isochoric method | 1147.2 ± 1.2
287.71 K, 29892 kPa, isochoric method | 1240.4 ± 1.2
287.89 K, 3962.5 kPa, isochoric method | 1147.1 ± 1.2
289.95 K, 15007 kPa, isochoric method | 1189.4 ± 1.2
289.99 K, 5188 kPa, isochoric method | 1146.9 ± 1.2
294.1 K, 34879 kPa, isochoric method | 1239.8 ± 1.2
297.11 K, 19748 kPa, isochoric method | 1188.8 ± 1.2
297.15 K, 1034.7 kPa, isochoric method | 1097.2 ± 1.2
298.15 K, 2000 kPa, Pycnometric method | 1101.34 ± 1
298.15 K, 9991.7 kPa, isochoric method | 1146.3 ± 1.2
299.15 K, 2029.1 kPa, isochoric method | 1097.1 ± 1.2
300.61 K, 39892 kPa, isochoric method | 1239.3 ± 1.2
301.16 K, 3031.3 kPa, isochoric method | 1096.9 ± 1.2
303.02 K, 3977.9 kPa, isochoric method | 1096.8 ± 1.2
304.9 K, 24929 kPa, isochoric method | 1188.2 ± 1.2
305.47 K, 5182.3 kPa, isochoric method | 1096.6 ± 1.2
306.32 K, 14776 kPa, isochoric method | 1145.7 ± 1.2
312.45 K, 29920 kPa, isochoric method | 1187.5 ± 1.2
315.08 K, 9982 kPa, isochoric method | 1095.9 ± 1.2
315.09 K, 19876 kPa, isochoric method | 1145 ± 1.2
315.95 K, 2247.5 kPa, isochoric method | 1032.9 ± 1.2
317.45 K, 2859.3 kPa, isochoric method | 1032.8 ± 1.2
320.1 K, 34906 kPa, isochoric method | 1187 ± 1.2
320.32 K, 4014.4 kPa, isochoric method | 1032.6 ± 1.2
322.67 K, 4967.1 kPa, isochoric method | 1032.4 ± 1.2
323.87 K, 24958 kPa, isochoric method | 1144.4 ± 1.2
325.07 K, 14981 kPa, isochoric method | 1095.2 ± 1.2
325.16 K, 5973.9 kPa, isochoric method | 1032.3 ± 1.2
327.9 K, 39962 kPa, isochoric method | 1186.4 ± 1.2
332.6 K, 29948 kPa, isochoric method | 1143.7 ± 1.2
335.17 K, 2008.9 kPa, isochoric method | 935 ± 1.2
335.17 K, 19964 kPa, isochoric method | 1094.5 ± 1.2
335.18 K, 10007 kPa, isochoric method | 1031.6 ± 1.2
338.63 K, 3007.2 kPa, isochoric method | 934.8 ± 1.2
341.49 K, 35032 kPa, isochoric method | 1143.1 ± 1.2
342.03 K, 3976.9 kPa, isochoric method | 934.7 ± 1.2
345.34 K, 25002 kPa, isochoric method | 1093.8 ± 1.2
345.42 K, 4963.5 kPa, isochoric method | 934.5 ± 1.2
347.2 K, 14893 kPa, isochoric method | 1030.8 ± 1.2
350.33 K, 40033 kPa, isochoric method | 1142.5 ± 1.2
353.14 K, 28869 kPa, isochoric method | 1093.3 ± 1.2
353.15 K, 7224.7 kPa, isochoric method | 934 ± 1.2
353.15 K, 17361 kPa, isochoric method | 1030.5 ± 1.2

FC(F)=C(F)C(F)(F)F [hexafluoropropene]
Details | mass density [kg/m3]
208.66 K, 4440.7 kPa, isochoric method | 1666.3 ± 1.6
212.77 K, 9785.5 kPa, isochoric method | 1665.7 ± 1.6
217.15 K, 15655 kPa, isochoric method | 1665.1 ± 1.6
220.5 K, 19878 kPa, isochoric method | 1664.7 ± 1.6
220.7 K, 1017.1 kPa, isochoric method | 1618 ± 1.6
221.58 K, 1995.2 kPa, isochoric method | 1617.9 ± 1.6
222.5 K, 3032.3 kPa, isochoric method | 1617.8 ± 1.6
223.26 K, 3878.8 kPa, isochoric method | 1617.7 ± 1.6
224.31 K, 5176.5 kPa, isochoric method | 1617.5 ± 1.6
224.32 K, 25024 kPa, isochoric method | 1664.2 ± 1.6
228.25 K, 29978 kPa, isochoric method | 1663.7 ± 1.6
228.76 K, 10104 kPa, isochoric method | 1616.9 ± 1.6
232.02 K, 34664 kPa, isochoric method | 1663.2 ± 1.6
233.17 K, 15012 kPa, isochoric method | 1616.4 ± 1.6
236.26 K, 39771 kPa, isochoric method | 1662.7 ± 1.6
237.66 K, 1075 kPa, isochoric method | 1560.8 ± 1.6
237.67 K, 20020 kPa, isochoric method | 1615.8 ± 1.6
238.62 K, 2000 kPa, isochoric method | 1560.7 ± 1.6
239.74 K, 3075.4 kPa, isochoric method | 1560.5 ± 1.6
240.8 K, 4091.1 kPa, isochoric method | 1560.4 ± 1.6
241.91 K, 5150.8 kPa, isochoric method | 1560.2 ± 1.6
241.95 K, 25034 kPa, isochoric method | 1615.3 ± 1.6
247.02 K, 10041 kPa, isochoric method | 1559.6 ± 1.6
247.52 K, 30945 kPa, isochoric method | 1614.6 ± 1.6
251.36 K, 35209 kPa, isochoric method | 1614.2 ± 1.6
252.41 K, 1004.8 kPa, isochoric method | 1507.5 ± 1.6
252.51 K, 15276 kPa, isochoric method | 1559 ± 1.6
253.78 K, 2142.1 kPa, isochoric method | 1507.3 ± 1.6
254.97 K, 3117.5 kPa, isochoric method | 1507.2 ± 1.6
255.93 K, 40226 kPa, isochoric method | 1613.6 ± 1.6
256.1 K, 4061.6 kPa, isochoric method | 1507 ± 1.6
257.5 K, 5226.1 kPa, isochoric method | 1506.9 ± 1.6
257.54 K, 20028 kPa, isochoric method | 1558.4 ± 1.6
262.84 K, 25067 kPa, isochoric method | 1557.8 ± 1.6
268.15 K, 30042 kPa, isochoric method | 1557.2 ± 1.6
269.46 K, 1140.2 kPa, isochoric method | 1444.5 ± 1.6
269.51 K, 15216 kPa, isochoric method | 1506 ± 1.6
270.71 K, 2007.3 kPa, isochoric method | 1444.3 ± 1.6
272.14 K, 2994.8 kPa, isochoric method | 1444.2 ± 1.6
273.5 K, 34978 kPa, isochoric method | 1556.7 ± 1.6
273.87 K, 4188.8 kPa, isochoric method | 1444 ± 1.6
275.36 K, 5220.9 kPa, isochoric method | 1443.8 ± 1.6
275.38 K, 20012 kPa, isochoric method | 1505.4 ± 1.6
278.75 K, 39847 kPa, isochoric method | 1556.1 ± 1.6
281.62 K, 25020 kPa, isochoric method | 1504.3 ± 1.6
282.66 K, 10250 kPa, isochoric method | 1443.1 ± 1.6
282.84 K, 1039.3 kPa, isochoric method | 1388.2 ± 1.5
284.56 K, 2050.1 kPa, isochoric method | 1388.1 ± 1.5
286.25 K, 2995.1 kPa, isochoric method | 1387.9 ± 1.5
287.65 K, 30072 kPa, isochoric method | 1504.2 ± 1.6
287.98 K, 4010.4 kPa, isochoric method | 1387.7 ± 1.5
289.44 K, 14959 kPa, isochoric method | 1442.4 ± 1.6
289.66 K, 4997.4 kPa, isochoric method | 1387.6 ± 1.5
294.12 K, 35270 kPa, isochoric method | 1503.5 ± 1.6
296.97 K, 20036 kPa, isochoric method | 1441.7 ± 1.6
297.23 K, 942.2 kPa, isochoric method | 1322 ± 1.5
298.15 K, 2000 kPa, Pycnometric method | 1326.6 ± 1.3
298.15 K, 10003 kPa, isochoric method | 1386.8 ± 1.5
299.3 K, 1958.7 kPa, isochoric method | 1321.8 ± 1.5
300.38 K, 40273 kPa, isochoric method | 1502.9 ± 1.6
301.47 K, 3021.5 kPa, isochoric method | 1321.6 ± 1.5
303.44 K, 3963.5 kPa, isochoric method | 1321.4 ± 1.5
304.43 K, 25120 kPa, isochoric method | 1441 ± 1.6
305.51 K, 4983.5 kPa, isochoric method | 1321.2 ± 1.5
307 K, 15256 kPa, isochoric method | 1385.9 ± 1.5
311.59 K, 29972 kPa, isochoric method | 1440.3 ± 1.6
315.78 K, 2033.9 kPa, isochoric method | 1237.1 ± 1.5
315.78 K, 9999.6 kPa, isochoric method | 1320.4 ± 1.5
315.78 K, 20405 kPa, isochoric method | 1385.1 ± 1.5
317.54 K, 2708.8 kPa, isochoric method | 1237 ± 1.5
319.05 K, 35044 kPa, isochoric method | 1439.6 ± 1.6
320.92 K, 3993.8 kPa, isochoric method | 1236.7 ± 1.5
323.55 K, 4999.4 kPa, isochoric method | 1236.5 ± 1.5
324.09 K, 25251 kPa, isochoric method | 1384.4 ± 1.5
326.52 K, 40028 kPa, isochoric method | 1438.9 ± 1.6
326.95 K, 15464 kPa, isochoric method | 1319.4 ± 1.5
332.97 K, 30410 kPa, isochoric method | 1383.6 ± 1.5
335.66 K, 19726 kPa, isochoric method | 1318.7 ± 1.5
336.51 K, 9979.8 kPa, isochoric method | 1235.5 ± 1.5
340.74 K, 34883 kPa, isochoric method | 1382.9 ± 1.5
345.95 K, 24723 kPa, isochoric method | 1317.8 ± 1.5
352.67 K, 41719 kPa, isochoric method | 1381.9 ± 1.5
353.15 K, 16419 kPa, isochoric method | 1234.2 ± 1.5
353.15 K, 28219 kPa, isochoric method | 1317.2 ± 1.5
